Literature values, collected in patent US12622888B2, “Pharmaceutical composition and application thereof” (priority 2019, dated 2026).

Test system: infarct size of the heart
Conditions: prior art CN2011102229806, FIG. 3

SMILES	rank order of the effect on reducing the infarct size
O=C(/C=C/c1ccc(O)c2c1[C@H](C(=O)O[C@H](Cc1ccc(O)c(O)c1)C(=O)O)[C@@H](c1ccc(O)c(O)c1)O2)O[C@H](Cc1ccc(O)c(O)c1)C(=O)O [salvianolic acid B]	salvianolic acid B <ginsenoside Rg1<<salvianolic acid B: ginsenoside Rg1=2:5 group
CC(C)=CCC[C@](C)(O[C@@H]1O[C@H](CO)[C@@H](O)[C@H](O)[C@H]1O)[C@H]1CC[C@]2(C)[C@@H]1[C@H](O)C[C@@H]1[C@@]3(C)CC[C@H](O)C(C)(C)[C@@H]3[C@@H](O[C@@H]3O[C@H](CO)[C@@H](O)[C@H](O)[C@H]3O)C[C@]12C [ginsenoside Rg1]	salvianolic acid B <ginsenoside Rg1<<salvianolic acid B: ginsenoside Rg1=2:5 group
